Measurements as given in US8507509B2, “Saturated and insaturated bi- or tricyclic aryloxyacetamine derivatives and their use as fungicides” (Syngenta Crop Protection LLC, priority 2007, dated 2013).

Legend:
Pythium ultimum = Pythium ultimum (Damping off), liquid culture growth inhibition in potato dextrose broth; format: cell-based; conditions: Globisporangium ultimum; 20 ppm; potato dextrose broth, 24° C.; inhibition of growth determined photometrically after 48 hours; read-out: control of fungal infection, Pythium ultimum
Septoria tritici = Septoria tritici (leaf blotch), liquid culture growth inhibition in nutrient broth; format: cell-based; conditions: Zymoseptoria tritici; 200 ppm; PDB broth, 24 C; inhibition of growth determined photometrically after 72 hrs; read-out: control of fungal infection, Septoria tritici
[1] = system: Puccinia recondita f.sp. tritici; experiment: Puccinia recondita f.sp. tritici (wheat brown rust), wheat leaf segment assay, preventive; format: in vivo; conditions: foliar, 216 h, 200 ppm, wheat leaf segments, assessed nine days after inoculation, read-out: control of fungal infection, Puccinia recondite f.sp. tritici
Plasmopara viticola = Plasmopara viticola (downy mildew of grapevine), grapevine leaf disk assay, preventive; format: in vivo; conditions: foliar, 168 h, 200 ppm, grapevine leaf disks, assessed seven days after inoculation, read-out: control of fungal infection, Plasmopara viticola
Fusarium culmorum = Fusarium culmorum (root rot), liquid culture growth inhibition in nutrient broth; format: cell-based; conditions: PDB broth, 24 C, inhibition of growth determined photometrically after 48 hrs, read-out: control of fungal infection, Fusarium culmorum
Description: Mycelia fragments or conidia suspensions of a fungus, prepared either freshly from liquid cultures of the fungus or from cryogenic storage, are directly mixed into nutrient broth. DMSO solutions of the test compound (max. 10 mg/ml) is diluted with 0.025% Tween20 by factor 50 and 10 μl of this solution is pipetted into a microtiter plate (96-well format) and the nutrient broth containing the fungal spores/mycelia fragments is then added to give an end concentration of the tested compound. The test plates are incubated at 24° C. and 96% rH in the dark. The inhibition of fungal growth is determined photometrically after 2-6 days and antifungal activity is calculated.
Fusarium culmorum (root rot): Conidia of the fungus from cryogenic storage were directly mixed into nutrient broth (PDB potato dextrose broth). After placing a (DMSO) solution of the test compounds into a microtiter plate (96-well format) the nutrient broth containing the fungal spores was added. The test plates were incubated at 24 C and the inhibition of growth was determined photometrically after 48 hrs.

Septoria nodorum = Septoria nodorum (wheat glume blotch), wheat leaf segment assay, preventive; format: in vivo; conditions: Parastagonospora nodorum, foliar, 96 h; 200 ppm; wheat leaf segments; assessed four days after inoculation; read-out: control of fungal infection, Septoria nodorum
Phytophthora infestans = experiment: whole plant or invertebrate; format: in vivo; conditions: in Solanum lycopersicum, foliar, 96 h, read-out: control of fungal infection, Phytophthora infestans
[2] = system: Erysiphe graminis f.sp. tritici; experiment: Erysiphe graminis f.sp. tritici (wheat powdery mildew), wheat leaf segment assay, preventive; format: in vivo; conditions: Blumeria graminis, foliar, 96 h; 200 ppm; wheat leaf segments; assessed four days after inoculation; read-out: control of fungal infection, Etysiphe graminis f.sp. tritici

C#Cc1cnc2ccc(OC(CC)C(=O)NC(C)(C)C=NOCC)cc2c1 (stereo not drawn) [Compound No. 148, N-(2-Ethoxyimino-1,1-dimethyl-ethyl)-2-(3-ethynyl-quinolin-6-yloxy)-butyramide]
≥ 60%: inhibition of growth at 20 ppm (Pythium ultimum) | inhibition of growth at 200 ppm (Septoria tritici) | pest or weed control at 200 ppm [1] | pest or weed control at 200 ppm (Plasmopara viticola) | inhibition of growth at 200 ppm (Fusarium culmorum) | pest or weed control at 200 ppm (Septoria nodorum) | pest or weed control at 200 ppm (Phytophthora infestans) | pest or weed control at 200 ppm [2]

CON=CC(C)NC(=O)C(Oc1ccc2ncc(Br)cc2c1)SC (stereo not drawn) [Compound No. 94, 2-(3-Bromo-quinolin-6-yloxy)-N-(2-methoxyimino-1-methyl-ethyl)-2-methylsulfanyl-acetamide]
≥ 60%: inhibition of growth at 20 ppm (Pythium ultimum) | inhibition of growth at 200 ppm (Septoria tritici) | pest or weed control at 200 ppm [1] | pest or weed control at 200 ppm (Plasmopara viticola) | inhibition of growth at 200 ppm (Fusarium culmorum) | pest or weed control at 200 ppm (Septoria nodorum) | pest or weed control at 200 ppm (Phytophthora infestans) | pest or weed control at 200 ppm [2]

C#Cc1cnc2ccc(OC(CC)C(=O)NC(C)(C)C=NO)cc2c1 (stereo not drawn) [Compound No. 147, 2-(3-Ethynyl-quinolin-6-yloxy)-N-(2-hydroxyimino-1,1-dimethyl-ethyl)-butyramide]
≥ 60%: inhibition of growth at 20 ppm (Pythium ultimum) | inhibition of growth at 200 ppm (Septoria tritici) | pest or weed control at 200 ppm [1] | pest or weed control at 200 ppm (Plasmopara viticola) | inhibition of growth at 200 ppm (Fusarium culmorum) | pest or weed control at 200 ppm (Septoria nodorum) | pest or weed control at 200 ppm (Phytophthora infestans) | pest or weed control at 200 ppm [2]

C#Cc1cnc2cc(F)c(OC(CC)C(=O)NC(C)(C)C=NOC)cc2c1 (stereo not drawn) [Compound No. 134, 2-(3-Ethynyl-7-fluoro-quinolin-6-yloxy)-N-(2-methoxyimino-1,1-dimethyl-ethyl)-butyramide]
≥ 60%: inhibition of growth at 20 ppm (Pythium ultimum) | inhibition of growth at 200 ppm (Septoria tritici) | pest or weed control at 200 ppm [1] | pest or weed control at 200 ppm (Plasmopara viticola) | inhibition of growth at 200 ppm (Fusarium culmorum) | pest or weed control at 200 ppm (Septoria nodorum) | pest or weed control at 200 ppm (Phytophthora infestans) | pest or weed control at 200 ppm [2]

C#Cc1cnc2c(C)cc(OC(CC)C(=O)NC(C)(C)C=NO)cc2c1 (stereo not drawn) [Compound No. 139, 2-(3-Ethynyl-8-methyl-quinolin-6-yloxy)-N-(2-hydroxyimino-1,1-dimethyl-ethyl)-butyramide]
≥ 60%: inhibition of growth at 20 ppm (Pythium ultimum) | inhibition of growth at 200 ppm (Septoria tritici) | pest or weed control at 200 ppm [1] | pest or weed control at 200 ppm (Plasmopara viticola) | inhibition of growth at 200 ppm (Fusarium culmorum) | pest or weed control at 200 ppm (Septoria nodorum) | pest or weed control at 200 ppm (Phytophthora infestans) | pest or weed control at 200 ppm [2]

CON=CCNC(=O)C(Oc1ccc2ncc(Br)cc2c1)SC (stereo not drawn) [Compound No. 93, 2-(3-Bromo-quinolin-6-yloxy)-N-(2-methoxyimino-ethyl)-2-methylsulfanyl-acetamide]
≥ 60%: inhibition of growth at 200 ppm (Septoria tritici) | pest or weed control at 200 ppm [1] | pest or weed control at 200 ppm (Plasmopara viticola) | inhibition of growth at 200 ppm (Fusarium culmorum) | pest or weed control at 200 ppm (Septoria nodorum) | pest or weed control at 200 ppm (Phytophthora infestans) | pest or weed control at 200 ppm [2]

CCC(Oc1ccc2ncc(Br)cc2c1)C(=O)NC(C)(C)C=NOC (stereo not drawn) [Compound No. 144, 2-(3-Bromo-quinolin-6-yloxy)-N-(2-methoxyimino-1,1-dimethyl-ethyl)-butyramide]
≥ 60%: inhibition of growth at 200 ppm (Septoria tritici) | pest or weed control at 200 ppm [1] | pest or weed control at 200 ppm (Plasmopara viticola) | inhibition of growth at 200 ppm (Fusarium culmorum) | pest or weed control at 200 ppm (Phytophthora infestans) | pest or weed control at 200 ppm [2]

CO/N=C(\C)C(C)(C)NC(=O)C(Oc1cc(C)c2ncc(Br)cc2c1)SC (stereo not drawn) [Compound No. 32, 2-(3-Bromo-8-methyl-quinolin-6-yloxy)-N-{2-[(E)-methoxyimino]-1,1-dimethyl-propyl}-2-methylsulfanyl-acetamide]
≥ 60%: inhibition of growth at 20 ppm (Pythium ultimum) | pest or weed control at 200 ppm [1] | pest or weed control at 200 ppm (Plasmopara viticola) | inhibition of growth at 200 ppm (Fusarium culmorum) | pest or weed control at 200 ppm (Phytophthora infestans) | pest or weed control at 200 ppm [2]

C#Cc1cnc2ccc(OC(SC)C(=O)NC3(C=NO)CCC3)cc2c1 (stereo not drawn) [Compound No. 80, 2-(3-Ethynyl-quinolin-6-yloxy)-N-[1-(hydroxyimino-methyl)-cyclobutyl]-2-methylsulfanyl-acetamide]
≥ 60%: inhibition of growth at 20 ppm (Pythium ultimum) | inhibition of growth at 200 ppm (Septoria tritici) | pest or weed control at 200 ppm [1] | pest or weed control at 200 ppm (Plasmopara viticola) | inhibition of growth at 200 ppm (Fusarium culmorum) | pest or weed control at 200 ppm (Septoria nodorum) | pest or weed control at 200 ppm (Phytophthora infestans) | pest or weed control at 200 ppm [2]

CC#CCON=CC(C)(C)NC(=O)C(Oc1ccc2ncc(Br)cc2c1)SC (stereo not drawn) [Compound No. 141, 2-(3-Bromo-quinolin-6-yloxy)-N-(2-but-2-ynyloxyimino-1,1-dimethyl-ethyl)-2-methylsulfanyl-acetamide]
≥ 60%: inhibition of growth at 20 ppm (Pythium ultimum) | inhibition of growth at 200 ppm (Septoria tritici) | pest or weed control at 200 ppm [1] | pest or weed control at 200 ppm (Plasmopara viticola) | inhibition of growth at 200 ppm (Fusarium culmorum) | pest or weed control at 200 ppm (Phytophthora infestans) | pest or weed control at 200 ppm [2]

CCC(Oc1ccc2ncc(I)cc2c1)C(=O)NC(C)(C)C=NOCCF (stereo not drawn) [Compound No. 155, N-[2-(2-Fluoro-ethoxyimino)-1,1-dimethyl-ethyl]-2-(3-iodo-quinolin-6-yloxy)-butyramide]
≥ 60%: inhibition of growth at 200 ppm (Septoria tritici) | pest or weed control at 200 ppm [1] | pest or weed control at 200 ppm (Plasmopara viticola) | inhibition of growth at 200 ppm (Fusarium culmorum) | pest or weed control at 200 ppm (Septoria nodorum) | pest or weed control at 200 ppm (Phytophthora infestans) | pest or weed control at 200 ppm [2]

C#Cc1cnc2ccc(OC(SC)C(=O)NC3(C=NOC)CCC3)cc2c1 (stereo not drawn) [Compound No. 78, 2-(3-ethynyl-quinolin-6-yloxy)-N-[1-(methoxyimino-methyl)-cyclobutyl]-2-methylsulfanyl-acetamide]
≥ 60%: inhibition of growth at 20 ppm (Pythium ultimum) | inhibition of growth at 200 ppm (Septoria tritici) | pest or weed control at 200 ppm [1] | pest or weed control at 200 ppm (Plasmopara viticola) | inhibition of growth at 200 ppm (Fusarium culmorum) | pest or weed control at 200 ppm (Septoria nodorum) | pest or weed control at 200 ppm (Phytophthora infestans)

CSC(Oc1ccc2ncc(Br)cc2c1)C(=O)NC(C)(C)C=NOCCF (stereo not drawn) [Compound No. 142, 2-(3-Bromo-quinolin-6-yloxy)-N-[2-(2-fluoro-ethoxyimino)-1,1-dimethyl-ethyl]-2-methylsulfanyl-acetamide]
≥ 60%: inhibition of growth at 20 ppm (Pythium ultimum) | inhibition of growth at 200 ppm (Septoria tritici) | pest or weed control at 200 ppm [1] | pest or weed control at 200 ppm (Plasmopara viticola) | inhibition of growth at 200 ppm (Fusarium culmorum) | pest or weed control at 200 ppm (Phytophthora infestans) | pest or weed control at 200 ppm [2]

CON=C(C)C(C)(C)NC(=O)C(Oc1ccc2ncc(Br)cc2c1)SC (stereo not drawn) [Compound No. 111, 2-(3-Bromo-quinolin-6-yloxy)-N-{2-[(E or Z)-methoxyimino]-1,1-dimethyl-propyl}-2-methylsulfanyl-acetamide]
≥ 60%: inhibition of growth at 20 ppm (Pythium ultimum) | inhibition of growth at 200 ppm (Septoria tritici) | pest or weed control at 200 ppm [1] | pest or weed control at 200 ppm (Plasmopara viticola) | inhibition of growth at 200 ppm (Fusarium culmorum) | pest or weed control at 200 ppm (Septoria nodorum) | pest or weed control at 200 ppm (Phytophthora infestans)
